Results as given in patent US20140288185A1, “NICOTINIC RECEPTOR NON-COMPETITIVE MODULATORS” (Targacept, Inc., priority 2011, published 2014).

Assays:
[1] = molecular target: human α4β2 (LS) (Homo sapiens, UniProt P17787+P43681); experiment: Calcium flux inhibition, SH-EP1-human α4β2 maintained at 37° C. (LS); format: cell-based
Procedure: (§1) SH-EP1-human α4β2 (Eaton et al., 2003), cell lines were obtained from Dr. Ron Lukas (Barrow Neurological Institute). Cells were maintained in proliferative growth phase in Dulbecco's modified Eagle's medium (Invitrogen, Carlsbad, Calif.) with 10% horse serum (Invitrogen), 5% fetal bovine serum (HyClone, Logan Utah), 1 mM sodium pyruvate, 4 mM L-glutamine. For maintenance of stable transfectants, the α4β2 cell media was supplemented with 0.25 mg/mL zeocin and 0.13 mg/mL hygromycin B.
Forty-eight hours prior to each experiment, cells were plated in 96 well black-walled, clear bottom plates (Corning, Corning, N.Y.) at 60-100,000 cells/well. On the day of the experiment, growth medium was gently removed, 200 μL 1×FLIPR Calcium 4 Assay reagent (Molecular Devices, Sunnyvale, Calif.) in assay buffer (20 mM HEPES, 7 mM TRIS base, 4 mM CaCl2, 5 mM D-glucose, 0.8 mM MgSO4, 5 mM KCl, 0.8 mM MgCl2, 120 mM N-methyl D-glucamine, 20 mM NaCl, pH 7.4 for SH-EP1-human α4β2 cells or 10 mM HEPES, 2.5 mM CaCl2, 5.6 mM D-glucose, 0.8 mM MgSO4, 5.3 mM KCl, 138 mM NaCl, pH 7.4 with TRIS-base for all other cell lines) was added to each well and plates were incubated at 37° C. for 1 hour (29° C. for the 29° C.-treated SH-EP1-human α4β2 cells). For inhibition studies, competitor compound (10 pM-10 μM) was added at the time of dye addition. The plates were removed from the incubator and allowed to equilibrate to room temperature. Plates were transferred to a FLIPR Tetra fluorometric imaging plate reader (Molecular Devices) for addition of compound and monitoring of fluorescence (excitation 485 nm, emission 525 nm). The amount of calcium flux was compared to both a positive (nicotine) and negative control (buffer alone). The positive control was defined as 100% response and the results of the test compounds were expressed as a percentage of the positive control. […] (LS), and 20 μM for SH-SY5Y cells or CHO_human α3β4.

[2] = molecular target: T1, human α3β4 (Homo sapiens, UniProt P30926+P32297); experiment: Calcium flux inhibition, CHO-human α3β4 cells; format: cell-based
T1 construct: host or cells: CHO
Procedure: (§2) CHO-human α3β4 cells (obtained from ChanTest, Cleveland, Ohio, catalog #CT6021) were maintained in proliferative growth phase in Ham's F12 (VWR) with 10% fetal bovine serum (Invitrogen), 0.25 mg/mL geneticin; 0.4 mg/ml zeocin. The amino acid sequences encoded by the transfected cDNA constructs used to generate the CHO-human α3β4 cells are identical to the translated sequences for GenBank accession numbers NM_000743.2 and NM_000750.3, respectively.
(§3) Forty-eight hours prior to each experiment, cells were plated in 96 well black-walled, clear bottom plates (Corning, Corning, N.Y.) at 60-100,000 cells/well. On the day of the experiment, growth medium was gently removed, 200 μL 1×FLIPR Calcium 4 Assay reagent (Molecular Devices, Sunnyvale, Calif.) in assay buffer (20 mM HEPES, 7 mM TRIS base, 4 mM CaCl2, 5 mM D-glucose, 0.8 mM MgSO4, 5 mM KCl, 0.8 mM MgCl2, 120 mM N-methyl D-glucamine, 20 mM NaCl, pH 7.4 for SH-EP1-human α4β2 cells or 10 mM HEPES, 2.5 mM CaCl2, 5.6 mM D-glucose, 0.8 mM MgSO4, 5.3 mM KCl, 138 mM NaCl, pH 7.4 with TRIS-base for all other cell lines) was added to each well and plates were incubated at 37° C. for 1 hour (29° C. for the 29° C.-treated SH-EP1-human α4β2 cells). For inhibition studies, competitor compound (10 pM-10 μM) was added at the time of dye addition. The plates were removed from the incubator and allowed to equilibrate to room temperature. Plates were transferred to a FLIPR Tetra fluorometric imaging plate reader (Molecular Devices) for addition of compound and monitoring of fluorescence (excitation 485 nm, emission 525 nm). The amount of calcium flux was compared to both a positive (nicotine) and negative control (buffer alone). The positive control was defined as 100% response and the results of the test compounds were expressed as a percentage of the positive control. For inhibition studies, the agonist nicotine was used at concentrations of 1 μM for SH-EP1-human α4β2 treated at 29° C. (HS), 10 μM for SH-EP1-human α4β2 maintained at 37° C. (LS), and 20 μM for SH-SY5Y cells or CHO_human α3β4.

[3] = molecular target: human α4β2 (HS) (Homo sapiens, UniProt P17787+P43681); experiment: Calcium flux inhibition, SH-EP1-human α4β2 treated at 29° C. (HS); format: cell-based
Procedure: as §1, §3

[4] = molecular target: T2, Nicotinic, human α7 (Homo sapiens, UniProt P36544); experiment: Competition binding, human α7 nicotinic receptor (CHO human α7 membranes); conditions: [3H]TC-12018 0.5 nM
T2 construct: host or cells: CHO
Procedure: as §2, with “α7” for “α3β4”, “#CT6201)” for “#CT6021)”, “NM_000746.4 (α7)” for “NM_000743.2”, “NM_024557.4 (hRIC3).” for “NM_000750.3, respectively.”
(§4) Cells were harvested in ice-cold PBS, pH 7.4, then homogenized with a Polytron (Kinematica GmbH, Switzerland). Homogenates were centrifuged at 40,000 g for 20 minutes (4° C.). The pellet was re-suspended in PBS and protein concentration determined using the Pierce BCA Protein Assay kit (Pierce Biotechnology, Rockford, Ill.).
Binding to nicotinic receptors was assayed on membranes using standard methods adapted from published procedures (Lippiello and Fernandes 1986; Davies et al., 1999). […] Filters were washed 3 times with ice-cold assay buffer and the retained radioactivity was determined by liquid scintillation counting.
Binding data were expressed as percent total control binding. […] Ki was calculated using the Cheng-Prusoff equation (Cheng and Prusoff, 1973).

[5] = molecular target: Nicotinic, human α4β2 (Homo sapiens, UniProt P17787+P43681); experiment: Competition binding, human α4β2 nicotinic receptor ([3H]nicotine)
Procedure: as §1, §4
(§5) Binding to nicotinic receptors was assayed on membranes using standard methods adapted from published procedures (Lippiello and Fernandes 1986; Davies et al., 1999). In brief, membranes were reconstituted from frozen stocks and incubated for 2 h on ice in 150 μl assay buffer (50 mM Tris, 154 mM NaCl, pH 7.4) in the presence of competitor compound (0.001 nM to 100 μM) and radioligand. [^3H]-nicotine (L-(−)-[N-methyl-^3H]-nicotine, 69.5 Ci/mmol, Perkin-Elmer Life Sciences, Waltham, Mass.) was used for human α4β2 binding studies. [^3H]-epibatidine (52 Ci/mmol, Perkin-Elmer Life Sciences) was used for binding studies at the other nicotinic receptor subtypes. Incubation was terminated by rapid filtration on a multimanifold tissue harvester (Brandel, Gaithersburg, Md.) using GF/B filters presoaked in 0.33% polyethyleneimine (w/v) to reduce non-specific binding. Filters were washed 3 times with ice-cold assay buffer and the retained radioactivity was determined by liquid scintillation counting.
(§6) Binding data were expressed as percent total control binding. Replicates for each point were averaged and plotted against the log of drug concentration. The IC50 (concentration of the compound that produces 50% inhibition of binding) was determined by least squares non-linear regression using GraphPad Prism software (GraphPAD, San Diego, Calif.). Ki was calculated using the Cheng-Prusoff equation (Cheng and Prusoff, 1973).

[6] = molecular target: T3, Nicotinic, human α3β4 (Homo sapiens, UniProt P30926+P32297); experiment: Competition binding, human α3β4 nicotinic receptor (CHO human α3β4 membranes)
T3 construct: host or cells: CHO
Procedure: as §2, §4, §5, §6

For `CC[C@@]12CCC[C@]1(NC)[C@H]1CC[C@@H]2C1`, the IC50 [1] was 5 µM, the Emax ([1]; read-out: Human α4β2 Ca Flux Imax [37C/HS]) was 93% and the IC50 [2] was 0.17 µM. For the same compound, the “Human CHO α3β4 Ca Flux Imax” value ([2]; nicotine 20 μM) was 97 % inh, the IC50 [3] was 0.6 µM and the “Human α4β2 Ca Flux Imax [29C/HS]” value ([3]; 29° C.-treated cells (HS), nicotine 1 μM) was 98 % inh. The Ki [4] was 79 µM, the Ki [5] was 26 µM and the Ki [6] was 56 µM.
